Earlier results, collected in PMC6915728 (Nature Communications, 2019).
Where two headings read alike, the source gives them in different places. Ends that are not written are not given here.

Test system: bacterial species in which the gene showed activity
Details: cited from earlier work
[1] = Salmonella enterica serovar Typhimurium, ref http://www.microbiologyresearch.org/docserver/fulltext/micro/154/2/666.pdf?expires=1487718158&id=id&accname=guest&checksum=D8B884D02A8B2A8619216A48E0826377
[2] = Salmonella typhimurium, Escherichia coli, ref https://www.ncbi.nlm.nih.gov/pmc/articles/PMC3037666/, https://www.ncbi.nlm.nih.gov/pmc/articles/PMC3837802/pdf/zam7770.pdf
[3] = Staphylococcus aureus, ref http://onlinelibrary.wiley.com/doi/10.1111/j.1365-2958.2007.05986.x/epdf
[4] = Salmonella typhimurium, Escherichia coli, ref https://www.ncbi.nlm.nih.gov/pmc/articles/PMC3037666/, https://www.ncbi.nlm.nih.gov/pmc/articles/PMC4808223/
[5] = Salmonella typhimurium, ref https://www.ncbi.nlm.nih.gov/pmc/articles/PMC3037666/
[6] = Neisseria meningitidis, Neisseria gonorrhoeae, ref http://www.ncbi.nlm.nih.gov/pmc/articles/PMC1196002/
[7] = Neisseria meningitidis, ref https://www.ncbi.nlm.nih.gov/pmc/articles/PMC1196002/
[8] = Staphylococcus aureus, Staphylococcus xylosus, ref http://www.jbc.org/content/274/13/8405.full.pdf
[9] = Staphylococcus epidermidis, ref http://jb.asm.org/content/178/2/531.full.pdf, https://www.ncbi.nlm.nih.gov/pmc/articles/PMC4239024/
[10] = Staphylococcus aureus, SalmonellaTyphimurium, ref http://ac.els-cdn.com/S0022202X15369608/1-s2.0-S0022202X15369608-main.pdf?_tid=6fa51c80-693e-11e6-b18c-00000aacb362&acdnat=1471962936_8118358d97a056d7d78b5e8b4ca8d03b, https://www.sciencedirect.com/science/article/pii/S0928824401002917
[11] = Klebsiella pneumoniae, ref http://iai.asm.org/content/72/12/7107.full.pdf+html
[12] = Klebsiella pneumoniae, ref http://www.ncbi.nlm.nih.gov/pmc/articles/PMC2798511/
[13] = Staphylococcus aureus, ref https://www.ncbi.nlm.nih.gov/pubmed/14707093

Nisin
Gene that modulates bacterial susceptibility to the AMP (Bacillus subtilis, gene psdA (yvcR), […]): psdA (yvcR) | Gene that modulates bacterial susceptibility to the AMP (Bacillus subtilis, gene psdB (yvcS), […]): psdB (yvcS) | Gene that modulates bacterial susceptibility to the AMP (Lactococcus lactis, genes nisE, nisF, nisG, […]): nisE, nisF, nisG | Gene that modulates bacterial susceptibility to the AMP (Lactococcus lactis, genes ysaB, ysaC, […]): ysaB, ysaC | Gene that modulates bacterial susceptibility to the AMP (Listeria monocytogenes, […]): anrA (lmo2114) | Gene that modulates bacterial susceptibility to the AMP (Staphylococcus aureus, […]): braA,braB

Colistin
Gene that modulates bacterial susceptibility to the AMP (Acinetobacter baumannii, ref https://mbio.asm.org/content/4/3/e00021-13): pmrB | Gene that modulates bacterial susceptibility to the AMP (Escherichia coli, Klebsiella pneumoniae, Pseudomonas aeruginosa, Kluyvera ascorbata, ref http://www.ncbi.nlm.nih.gov/pubmed/26603172, http://ac.els-cdn.com/S1473309915005332/1-s2.0-S1473309915005332-main.pdf?_tid=16a7f944-6944-11e6-8a9d-00000aab0f02&acdnat=1471965364_7f481026d1a49114e23adef4a6b4d1a9, https://www.ncbi.nlm.nih.gov/pmc/articles/PMC5119035/): mcr1 | Gene that modulates bacterial susceptibility to the AMP (Pseudomonas aeruginosa, ref https://onlinelibrary.wiley.com/doi/epdf/10.1111/j.1365-2958.2008.06152.x): mexA, mexB

CC[C@H](C)[C@H](NC(=O)CN)C(=O)NCC(=O)N[C@@H](C)C(=O)N[C@H](C(=O)N[C@@H](CC(C)C)C(=O)N[C@@H](CCCCN)C(=O)N[C@H](C(=O)N[C@@H](CC(C)C)C(=O)N[C@H](C(=O)N[C@H](C(=O)NCC(=O)N[C@@H](CC(C)C)C(=O)N1CCC[C@H]1C(=O)N[C@@H](C)C(=O)N[C@@H](CC(C)C)C(=O)N[C@H](C(=O)N[C@@H](CO)C(=O)N[C@@H](Cc1c[nH]c2ccccc12)C(=O)N[C@H](C(=O)N[C@@H](CCCCN)C(=O)N[C@@H](CCCNC(=N)N)C(=O)N[C@@H](CCCCN)C(=O)N[C@@H](CCCNC(=N)N)C(=O)N[C@@H](CCC(N)=O)C(=O)N[C@@H](CCC(N)=O)C(N)=O)[C@@H](C)CC)[C@@H](C)CC)[C@@H](C)O)[C@@H](C)O)C(C)C)C(C)C [melittin]
Gene that modulates bacterial susceptibility to the AMP [1]: yejA | Gene that modulates bacterial susceptibility to the AMP [2]: cpxA (CpxA/CpxR)

Human beta-defensin3 (GIINTLQKYYCRVRGGRCAVLSCLPKEEQIGKCSTRGRKCCRRKK; ends and bridges not checked; cysteine pairing not given here; UniProt P81534 23-67, looked up)
Gene that modulates bacterial susceptibility to the AMP [3]: apsS

magainin 2
Gene that modulates bacterial susceptibility to the AMP [2]: cpxA (CpxA/CpxR) | Gene that modulates bacterial susceptibility to the AMP [4]: amiA, amiC | Gene that modulates bacterial susceptibility to the AMP [5]: tatA

protegrin-1 (RGGRLCYCRRRFCVCVGR; ends and bridges not checked; cysteine pairing not given here; UniProt P32194 131-148, looked up)
Gene that modulates bacterial susceptibility to the AMP [6]: mtrC, mtrD, mtrE | Gene that modulates bacterial susceptibility to the AMP [7]: lptA | Gene that modulates bacterial susceptibility to the AMP: pgtE

gallidermin (IASKFLCTPGCAKTGSFNSYCC; also: lantibiotic, thioether rings, places not given here; UniProt P21838 31-52, looked up)
Gene that modulates bacterial susceptibility to the AMP [8]: dltA (dlt operon) | Gene that modulates bacterial susceptibility to the AMP [9]: epiE, epiF, epiG

dermcidin (SSLLEKGLDGAKKAVGGLGKLGKDAVEDLESVGKGAVHDVKDVLDSV; DCD-1; UniProt P81605 63-109, looked up)
Gene that modulates bacterial susceptibility to the AMP [3]: apsS

LL-37 (LLGDFFRKSKEKIGKEFKRIVQRIKDFLRNLVPRTES; Antibacterial peptide LL-37; UniProt P49913 134-170, looked up)
Gene that modulates bacterial susceptibility to the AMP [6]: mtrC, mtrD, mtrE | Gene that modulates bacterial susceptibility to the AMP [7]: lptA | Gene that modulates bacterial susceptibility to the AMP [10]: hemB | Gene that modulates bacterial susceptibility to the AMP (Staphylococcus epidermidis, ref http://onlinelibrary.wiley.com/doi/10.1046/j.1462-5822.2004.00367.x/epdf): icaA(ica operon)

Human alfa-defensin3
Gene that modulates bacterial susceptibility to the AMP [8]: dltA (dlt operon)

human defensin (human beta-defensin)-1 (DHYNCVSSGGQCLYSACPIFTKIQGTCYRGKAKCCK; ends and bridges not checked; cysteine pairing not given here; UniProt P60022 33-68, looked up)
Gene that modulates bacterial susceptibility to the AMP [1]: yejA

human beta-defensin-1 (DHYNCVSSGGQCLYSACPIFTKIQGTCYRGKAKCCK; ends and bridges not checked; cysteine pairing not given here; UniProt P60022 33-68, looked up)
Gene that modulates bacterial susceptibility to the AMP (Burkholderia cenocepacia, ref http://www.microbiologyresearch.org/docserver/fulltext/micro/155/9/2818.pdf?expires=1468919235&id=id&accname=guest&checksum=2CEA64BA8195145BE72C98BB20076628): zmpB | Gene that modulates bacterial susceptibility to the AMP [11]: cps | Gene that modulates bacterial susceptibility to the AMP (Proteus mirabilis, ref http://www.ncbi.nlm.nih.gov/pmc/articles/PMC517467/pdf/0713-04.pdf): zapA

polymyxin E
Gene that modulates bacterial susceptibility to the AMP (Bordetella pertussis, ref http://www.ncbi.nlm.nih.gov/pmc/articles/PMC4136009/): lgmA, IgmB, IgmC

lactoferricin B
Gene that modulates bacterial susceptibility to the AMP [10]: hemB

human beta-defensin 1 (DHYNCVSSGGQCLYSACPIFTKIQGTCYRGKAKCCK; ends and bridges not checked; cysteine pairing not given here; UniProt P60022 33-68, looked up)
Gene that modulates bacterial susceptibility to the AMP [12]: acrB

Human alpha-defensin-2 (CYCRIPACIAGERRYGTCIYQGRLWAFCC; ends and bridges not checked; cysteine pairing not given here; UniProt P59665 66-94, looked up)
Gene that modulates bacterial susceptibility to the AMP [13]: sak

Human alfa-defensin1
Gene that modulates bacterial susceptibility to the AMP [8]: dltA (dlt operon)

human beta-defensin 2
Gene that modulates bacterial susceptibility to the AMP [12]: acrB | Gene that modulates bacterial susceptibility to the AMP [10]: hemB

GIGKFLHSAKKFGKAFVGEIMNS [Magainin 2]
Gene that modulates bacterial susceptibility to the AMP (Salmonella enterica serovar Typhimurium, ref http://onlinelibrary.wiley.com/doi/10.1111/j.1365-2958.2004.04107.x/full): yqjA | Gene that modulates bacterial susceptibility to the AMP (Salmonella enterica serovar Typhimurium, ref http://www.jbc.org/content/279/37/38618.long, https://onlinelibrary.wiley.com/doi/epdf/10.1111/j.1365-2958.2005.04553.x): slyA | Gene that modulates bacterial susceptibility to the AMP (Salmonella enterica serovar Typhimurium, ref http://www.jbc.org/content/279/37/38618.long): ugtL

Human alpha-defensin-1
Gene that modulates bacterial susceptibility to the AMP [13]: sak

nisin
Gene that modulates bacterial susceptibility to the AMP [8]: dltA (dlt operon) | Gene that modulates bacterial susceptibility to the AMP [3]: apsS

mellitin
Gene that modulates bacterial susceptibility to the AMP [4]: amiA, amiC | Gene that modulates bacterial susceptibility to the AMP [5]: tatA

colistin
Gene that modulates bacterial susceptibility to the AMP (Acinetobacter baumannii, ref http://aac.asm.org/content/54/12/4971.full.pdf+html): lpxA | Gene that modulates bacterial susceptibility to the AMP [10]: hemB

Magainin II
Gene that modulates bacterial susceptibility to the AMP [8]: dltA (dlt operon)

beta-defensin-1 (DHYNCVSSGGQCLYSACPIFTKIQGTCYRGKAKCCK; ends and bridges not checked; cysteine pairing not given here; UniProt P60022 33-68, looked up)
Gene that modulates bacterial susceptibility to the AMP: pla

CRAMP
Gene that modulates bacterial susceptibility to the AMP: pgtE

human neutrophil peptide-1
Gene that modulates bacterial susceptibility to the AMP [12]: acrB | Gene that modulates bacterial susceptibility to the AMP [4]: amiA, amiC

bacitracin
Gene that modulates bacterial susceptibility to the AMP (Listeria monocytogenes, ref https://www.ncbi.nlm.nih.gov/pmc/articles/PMC2944581/): anrA (lmo2114) | Gene that modulates bacterial susceptibility to the AMP (Staphylococcus aureus, ref https://www.ncbi.nlm.nih.gov/pmc/articles/PMC3718698/): braA,braB

lactoferrin
Gene that modulates bacterial susceptibility to the AMP [11]: cps

Epidermin (IASKFICTPGCAKTGSFNSYCC; also: lantibiotic, thioether rings, places not given here; UniProt P08136 31-52, looked up)
Gene that modulates bacterial susceptibility to the AMP [9]: epiE, epiF, epiG

protegrin
Gene that modulates bacterial susceptibility to the AMP (Salmonella typhimurium, Salmonella typhi, ref http://www.sciencedirect.com/science/article/pii/S009286740081750X): pagP

human beta-defensin-2
Gene that modulates bacterial susceptibility to the AMP [1]: yejA

human beta-defensin 3 (GIINTLQKYYCRVRGGRCAVLSCLPKEEQIGKCSTRGRKCCRRKK; ends and bridges not checked; cysteine pairing not given here; UniProt P81534 23-67, looked up)
Gene that modulates bacterial susceptibility to the AMP [10]: hemB

Human neutrophil peptide-1
Gene that modulates bacterial susceptibility to the AMP [11]: cps
